Reference: US8609332B2, “Assay” (Queen's University of Belfast, priority 2006, dated 2013)

Legend:
[1] = system: ser473 phosphorylated Akt; experiment: AKT phosphorylation immunoblot; format: cell-based, rat
Experimental: FIG. 5C Immunodetection and LY290042-inhibition of phosphorylated Akt in parental R37, R37-CMV, R37-OPN and R37-RAN cells. 20 μg cell lysates were loaded onto a SDS 10% (W(W) polyacrylamide gel as follows: lane 1 R37, lane 2 R37-pBk-CMV; lane 3 R37-RAN, lane 4 R37-OPN; lane 5 R37-OPN treated with 50 μm LY290042 for 18 hr (R37-OPN/LY); and lane 6 R37-RAN treated with 50 μm LY290042 for 18 hr (R37-RAN/LY). Proteins were detected in immunoblots using specific antibodies to phosphoserine 473 AkT. Bands were quantified using densitometric analysis and quantified with respect to those of β-actin. The results were a representative sample of three experiments. The average fold increase for 3 different experiments for phosphorylated AkT on ser473 is: lane 1=1, lane 2=2.2±0.4, lane 3=22.5±0.7, lane 4=21.1±0.5, lane 5=0±0 and lane 6=0±0.
The R37, R37-CMV, R37-RAN and R37-OPN cells were harvested at 80% confluence from 7 cm dishes. The cell were lysed in 300 μl of 2× Loading buffer (20% glycerol (v/v), 4% SDS (w/v), 10% 2-mercaptoethanol (v/v), 126 mM Tris, pH 6.8 and coloured with bromophenol blue). The lysates were sonicated, boiled at 100° C. for 5 minutes and then centrifuged at 15000 rpm for 10 minutes. Proteins were resolved by 7.5% SDS-PAGE and immunoblofted for ser473 phosphorylated Akt.as previously (43).

[2] = at 50 μM; cited from earlier work

O=c1cc(N2CCOCC2)oc2c(-c3ccccc3)cccc12 [LY294002, 2-4(4-morpholinyl)-8-phenyl-4H-1-benzopyran-4-one]
phosphorylated AkT on ser473, average fold increase (R37 = 1) ([1]; R37-OPN cells treated with 50 μm for 18 hr (lane 5)): 0±0 fold | phosphorylated AkT on ser473, average fold increase (R37 = 1) ([1]; R37-RAN cells treated with 50 μm for 18 hr (lane 6)): 0±0 fold | induction of apoptosis [2]: without inducing apoptosis
